Measured values reported in US20070255357A1, “NASAL DECO[…] MICROBES” (Ondine International, Ltd., priority 2006, published 2007).

Key:
[1] = tested on: MRSA biofilms; experiment: SEM evaluation of MRSA biofilms after photodisinfection; type: cell-based, Methicillin-resistant Staphylococcus aureus; conditions: about 0.1 wt % methylene blue, about 10 s contact; about 665-675 nm for about 30 seconds, Periowave laser; FIG. 34 vs FIG. 33
Procedure: Biofilms heavily colonized with one to four layers of MRSA organisms were contacted with a photosensitizing composition comprising methylene blue at a concentration of about 0.1 wt % for about 10 seconds and then illuminated at a wavelength of about 665 nm to about 675 nm for a period from about 30 seconds using the Periowave™ laser. Thereafter, these biofilms and the controlled MRSA biofilms (e.g., no photodisinfection treatment) were incubated overnight in 0.9 wt % saline and then fixed in 10 wt % Formalin for scanning electron microscope (SEM) evaluation.

[2] = tested on: E. coli biofilms; experiment: SEM evaluation of E. coli biofilms after photodisinfection; type: cell-based, Escherichia coli; conditions: about 0.1 wt % methylene blue, about 10 s contact; about 665-675 nm for about 30 seconds, Periowave laser; FIG. 36 vs FIG. 35
Procedure: Biofilms heavily colonized with one to three layers of Escherichia coli (E. coli) organisms were contacted with a photosensitizing composition comprising methylene blue at a concentration of about 0.1 wt % for about 10 seconds and then illuminated at a wavelength of about 665 nm to about 675 nm for a period from about 30 seconds using the Periowave™ laser. Thereafter, these biofilms and the controlled E. coli biofilms (e.g., no photodisinfection treatment) were incubated for three hours in 0.9% saline and then fixed in 10% Formalin for scanning electron microscope (SEM) evaluation.

[3] = tested on: biofilms of E. fecalis; experiment: Photodisinfection of E. fecalis biofilms in vitro (methylene blue + Periowave laser); type: cell-based, Enterococcus fecalis; conditions: biofilm
Excerpt: (§1) Photodisinfection treatments using methods contemplated by the present invention have been tested against MRSA, Escherichia coli (E. coli), and Enterococcus fecalis (E. fecalis) in vitro and reached high levels of disinfection in within seconds to one minute. Photosensitizing composition comprising of methylene blue at various concentrations ranging from about 0.005 wt % to 0.1 wt % was applied to biofilms of MRSA, E. coli and E. fecalis for about ten seconds. These biofilms were then illuminated by a laser light system at a wavelength of about 665 nm to about 675 nm for a period from about 0 seconds to about 60 seconds (e.g., accumulated energy level of about 0 J/cm^2 to about 9 J/cm^2). The laser light system used was the Periowave™ system which includes a low-intensity laser with power at about 240 mW and the optical probe described in PCT Patent Publication No. WO2006115761.

[4] = tested on: otitis externa; experiment: Photodisinfection of otitis externa treatment site (Examples V to VII); type: in vivo
Procedure: A photosensitizing composition comprising of methylene blue at a concentration of about 0.1 wt % is applied to the otitis externa treatment site. Light at a wavelength range from about 650 nm to about 680 nm is applied to the photosensitizing composition located within the otitis externa treatment site for a period from about 6 minutes to about 10 minutes using a laser with power at about 80 mW. The otitis externa was ameliorated.
A photosensitizing composition comprising of methylene blue at a concentration range of from about 0.001 wt % to about 0.1 wt % is applied to the otitis externa treatment site. Light at a wavelength range from about 650 nm to about 680 nm is applied to the photosensitizing composition located within the treatment site for a period from about 1 minute to about 20 minutes using a laser with power at a range from about 50 mW to about 300 mW. The otitis externa was ameliorated.
A photosensitizing composition comprising of toluidine blue at a concentration range of from about 0.001% wt % to about 0.1 wt % is applied to the otitis externa treatment site. Light at a wavelength range from about 620 nm to about 650 nm is applied to the photosensitizing composition located within the otitis externa treatment site for a period from about 1 minute to about 20 minutes using a laser with power at a range from about 50 mW to about 300 mW. The otitis externa was ameliorated.
For Examples V to VII, it was shown that there is a general inverse relationship between (1) the photosensitizer concentration and (2) the photodisinfection treatment time and/or the amount of power required for the light source. For example, higher concentration of photosensitizer requires less treatment time and/or lower light source power. Conversely, lower concentration of photosensitizer requires longer treatment time and/or higher light source power. Also, less treatment time requires higher concentration of photosensitizer and/or higher light source power.

[5] = tested on: otitis externa; experiment: Study on patients suffering otitis externa (photodisinfection); type: in vivo, human
Procedure: A study was conducted on patients suffering otitis externa. During the study, a photosensitizing composition comprising of methylene blue at a concentration of about 0.01 wt % was applied using a cotton swab to the treatment site as shown in FIG. 37. Thereafter and referring to FIGS. 38-39, light at a wavelength range from about 665 nm to about 675 nm was applied to the photosensitizing composition located within the treatment site 64 for a period from about 3 minutes to about 5 minutes (3-5 repetitive one minute cycles) using the Periowave™ laser light system.

[6] = tested on: biofilms of E. coli; experiment: Photodisinfection of E. coli biofilms in vitro (methylene blue + Periowave laser); type: cell-based, Escherichia coli; conditions: biofilm; for reduction of E. coli: at least 0.02 wt % methylene blue, laser about 665-675 nm for at least 15 seconds (at least 2.25 J/cm^2)
Excerpt: as §1

[7] = tested on: biofilms of MRSA; experiment: Photodisinfection of MRSA biofilms in vitro (methylene blue + Periowave laser); type: cell-based, Methicillin-resistant Staphylococcus aureus; conditions: biofilm; for reduction of MRSA: at least 0.02 wt % methylene blue, laser about 665-675 nm for at least 15 seconds (at least 2.25 J/cm^2)
Excerpt: as §1

[8] = methylene blue about 0.02-0.1 wt % and a low power laser (about 240 mW)

Compound: CN(C)c1ccc2nc3ccc(=[N+](C)C)cc-3sc2c1 [methylene blue]
- reduction of MRSA in SEM photograph vs controlled biofilm [1]: substantial reduction of MRSA
- reduction of E. coli in SEM photograph vs controlled biofilm [2]: substantial reduction of E. coli
- reduction of E. fecalis ([3]; at least 0.02 wt % methylene blue, laser about 665-675 nm for at least 15 seconds (at least 2.25 J/cm^2)): over 90%
- elimination of E. Fecalis by photodisinfection [3, 8]: effectively eliminated
- outcome of otitis externa ([4]; Example V: about 0.1 wt % methylene blue, about 650-680 nm for about 6-10 minutes, laser about 80 mW): ameliorated
- outcome of otitis externa ([4]; Example VI: about 0.001-0.1 wt % methylene blue, about 650-680 nm for about 1-20 minutes, laser about 50-300 mW): ameliorated
- outcome of severe otitis externa ([5]; patients with severe otitis externa, about 2 to 5 additional treatments, same protocol, over about one to two weeks): also ameliorated
- outcome of otitis externa ([5]; patients, about 0.01 wt % methylene blue by cotton swab, about 665-675 nm for about 3-5 minutes, Periowave laser, many patients): ameliorated
- reduction of E. coli ([6]; about 10 s contact): at least three
- reduction of E. coli [6]: over 90%
- elimination of E. coli by photodisinfection [6, 8]: effectively eliminated
- reduction of MRSA ([7]; about 10 s contact): at least three
- reduction of MRSA [7]: over 90%
- elimination of MRSA by photodisinfection [7, 8]: effectively eliminated

Compound: Cc1cc2nc3ccc(N(C)C)cc3[s+]c2cc1N.[Cl-] [toluidine blue]
- outcome of otitis externa ([4]; Example VII: about 0.001-0.1 wt % toluidine blue, about 620-650 nm for about 1-20 minutes, laser about 50-300 mW): ameliorated
